Some test systems named below: SK-OV-3; SNB-19; HCT-15; A549; NCI-H522; CAKI-1; HCC 2998; SN12C; HL-60; HCT-116; HOP-62; SF-268; SW-620; ACHN; M14; RXF 393.
Experiment in all cases: growth of human tumour cells (NCI), 48 h

Molecules are shown by their SMILES.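 Briefly, cells in 96-well plates were exposed to five compound concentrations for 48 h, and endpoints were estimated by linear interpolation. GI50: concentration for 50% inhibition of growth.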 Activity calls are given as the source filed them. Rule as the data show it: active = GI50 up to about 1.1 µM and inactive = higher.

`CSC(C1c2ccccc2N(C)C2=NC(=O)N(C)C(=O)C21Cl)S(=O)(=O)c1ccc(C)cc1` (configuration not stated): the GI50 in the test with SK-OV-3 was > 100 µM (inactive); in the test with SNB-19 it was 64.3 µM (inactive); with HCT-15, 40.9 µM; in the test with A549, > 100 µM (inactive); in the test with NCI-H522, 15.7 µM (inactive); in the test on CAKI-1, 24.9 µM (inactive). In addition, the GI50 is > 100 µM (inactive) with HCC 2998; 50.4 µM (inactive) in the test on SN12C; 14.2 µM (inactive) in the test on HL-60; 31.8 µM (inactive) with HCT-116; > 100 µM (inactive) in the test on HOP-62; 29.3 µM (inactive) with SF-268. The GI50 in the test on SW-620 was 26.6 µM (inactive); with ACHN, 50.6 µM (inactive).

For the compound `O=P1(c2ccccc2)CCCCC1`, the GI50 with SK-OV-3 was > 100 µM (inactive); in the test on M14 it was > 100 µM (inactive); in the test with RXF 393, > 100 µM (inactive); in the test with SNB-19, > 100 µM (inactive); in the test on HCT-15, more than 100 µM; in the test on A549 it was > 100 µM (inactive). For the same compound, the GI50 in the test on NCI-H522 was > 10 µM (inactive); in the test with HCC 2998 it was > 100 µM (inactive); in the test on SN12C, > 100 µM (inactive); in the test on HL-60, > 100 µM (inactive); in the test on HCT-116, > 100 µM (inactive); in the test with HOP-62 it was > 100 µM (inactive). Moreover, the GI50 in the test on SW-620 is > 10 µM (inactive); in the test with ACHN it was > 100 µM (inactive).

Turning to `CC1CC#CCOC(=O)CCCC1=O` (configuration not stated), the GI50 in the test with SK-OV-3, in the test on M14, in the test with RXF 393, in the test on SNB-19, in the test on A549 and in the test on NCI-H522 was > 100 µM (inactive) throughout. The GI50 in the test on HCC 2998, in the test with SN12C, with HL-60, in the test on HCT-116, in the test on HOP-62 and in the test with SF-268 was > 100 µM (inactive) each time. Besides, in the test on SW-620, the GI50 is > 100 µM (inactive).

Consider `COc1cccc(C(=O)C2C(=O)N(C)CCc3ccccc32)c1OC` (configuration not stated), for which the GI50 with SK-OV-3 is > 100 µM (inactive); in the test on M14 it was > 100 µM (inactive); in the test with RXF 393, > 100 µM (inactive); in the test with SNB-19, > 100 µM (inactive); with HCT-15, more than 100 µM; in the test on A549, > 100 µM (inactive). The GI50 in the test on NCI-H522, in the test with CAKI-1, with SN12C, in the test on HL-60, in the test with HCT-116 and in the test on HOP-62 was > 100 µM (inactive) throughout. Also, the GI50 with SF-268 is > 10 µM (inactive); in the test with SW-620, > 100 µM (inactive); in the test on ACHN, > 100 µM (inactive).

`COc1ccc(NC(=O)C2C(=O)N(c3ccc(OC)cc3)C(=O)/C2=N\NC(N)=O)cc1` (configuration not stated): the GI50 in the test on SK-OV-3 was 22.1 µM (inactive); with M14 it was 92.5 µM (inactive); with RXF 393, 22.5 µM (inactive); in the test on SNB-19 it was 41.1 µM (inactive); in the test on HCT-15, more than 100 µM; with NCI-H522 it was 45.6 µM (inactive). Moreover, the GI50 in the test with CAKI-1 was > 100 µM (inactive); in the test with HCC 2998, 30.9 µM (inactive); with SN12C, 98.9 µM (inactive); in the test with HCT-116, 21.2 µM (inactive); in the test with HOP-62, 16.3 µM (inactive); in the test on SF-268 it was 20.2 µM (inactive). Also, the GI50 in the test with SW-620 was > 100 µM (inactive); with ACHN, 27.6 µM (inactive).

`O=c1c2cc(Br)cc(Br)c2nc(CCCl)n1-c1ccc(O)c([N+](=O)[O-])c1`: the GI50 is 15.8 µM (inactive) with SK-OV-3; 17.2 µM (inactive) in the test with M14; 20.1 µM (inactive) with SNB-19; 19 µM with HCT-15; 15.5 µM (inactive) in the test with A549; 9.66 µM (inactive) with NCI-H522. Besides, the GI50 is 18.5 µM (inactive) with HCC 2998; 17.6 µM (inactive) in the test with SN12C; 23.3 µM (inactive) in the test with HL-60; 14.7 µM (inactive) in the test with HCT-116; 18.7 µM (inactive) in the test with HOP-62; 19.3 µM (inactive) in the test with SF-268. Moreover, the GI50 was 19.4 µM (inactive) with SW-620 and 19.7 µM (inactive) with ACHN.

Consider `Cc1cc(C)c(C(=O)c2no[n+]([O-])c2C(=O)c2c(C)cc(C)c(Br)c2C)c(C)c1Br`, for which the GI50 is 20.7 µM (inactive) in the test on SK-OV-3; 11.8 µM (inactive) in the test with M14; 6.05 µM (inactive) in the test with RXF 393; 15.7 µM (inactive) with SNB-19; 13.5 µM with HCT-15; 13.8 µM (inactive) in the test on A549. The GI50 in the test on NCI-H522 is 10.9 µM (inactive); with CAKI-1, 11.4 µM (inactive); with SN12C, 14.2 µM (inactive); in the test with HL-60, 3.35 µM (inactive); with HCT-116, 10.2 µM (inactive); with HOP-62, 18.2 µM (inactive). Also, the GI50 was 11.5 µM (inactive) in the test on SF-268, 12.9 µM (inactive) with SW-620 and 12.6 µM (inactive) in the test with ACHN.

As to `CCCCCCCCCCCc1nnc(N)o1`, the GI50 is > 100 µM (inactive) with SK-OV-3; > 100 µM (inactive) with M14; 18.9 µM (inactive) in the test on SNB-19; more than 100 µM in the test on HCT-15; > 100 µM (inactive) with A549; 67 µM (inactive) with NCI-H522. The GI50 with HCC 2998 is > 100 µM (inactive); in the test on SN12C, > 100 µM (inactive); with HL-60, 37.2 µM (inactive); with HCT-116, > 100 µM (inactive); in the test on HOP-62, > 100 µM (inactive); with SF-268 it was 99.1 µM (inactive). Further, the GI50 in the test on SW-620 and in the test on ACHN was > 100 µM (inactive) throughout.

On to `CC(=O)OCC1OC(n2cccnc2=O)C(OC(C)=O)C1OC(C)=O` (configuration not stated), for which the GI50 is > 100 µM (inactive) in the test on SK-OV-3; > 100 µM (inactive) in the test on M14; > 100 µM (inactive) in the test with RXF 393; > 100 µM (inactive) in the test with SNB-19; more than 100 µM in the test with HCT-15; > 100 µM (inactive) in the test with A549. Besides, the GI50 in the test with NCI-H522, with CAKI-1, with SN12C, with HL-60, in the test with HCT-116 and with HOP-62 was > 100 µM (inactive) throughout. Further, the GI50 with SF-268, with SW-620 and with ACHN was > 100 µM (inactive) in each case.

In the case of `Cc1ccc2nc3c(Cl)cc(=O)cc-3sc2c1`, the GI50 in the test on SK-OV-3 was > 10 µM (inactive); with M14, 22.1 µM (inactive); with SNB-19 it was > 10 µM (inactive); with HCT-15 it was 17.5 µM; in the test on A549, 19.5 µM (inactive); with NCI-H522, 16.7 µM (inactive). In addition, the GI50 in the test on CAKI-1 is 27.4 µM (inactive); in the test on SN12C, > 10 µM (inactive); in the test with HL-60, 5.77 µM (inactive); in the test with HCT-116, 17.9 µM (inactive); with SF-268, 23.6 µM (inactive); in the test on SW-620 it was 21.6 µM (inactive). Moreover, the GI50 in the test on ACHN was 23.3 µM (inactive).

For `C/C(CC(=O)CCCC(=O)Nc1ccc(Cl)cc1Cl)=N/NC(=O)CC#N`, the GI50 in the test with SK-OV-3 is > 100 µM (inactive); with M14 it was > 100 µM (inactive); in the test on RXF 393 it was > 100 µM (inactive); in the test on SNB-19, > 100 µM (inactive); in the test on HCT-15, more than 100 µM; in the test with A549, > 100 µM (inactive). For the same compound, the GI50 in the test with CAKI-1, with HCC 2998, in the test on SN12C, in the test on HL-60, with HCT-116 and in the test on SF-268 was > 100 µM (inactive) throughout. The GI50 in the test with SW-620 and in the test on ACHN was > 100 µM (inactive) each time.

`COc1cc(C(=O)C/C(CCC(=O)Nc2ccccc2[N+](=O)[O-])=N\NC(=O)C(N)=O)ccc1O`: the GI50 with SK-OV-3 is > 100 µM (inactive); with M14, > 100 µM (inactive); with RXF 393, 76.4 µM (inactive); in the test on SNB-19 it was > 100 µM (inactive); with HCT-15 it was more than 100 µM; with A549 it was > 100 µM (inactive). Moreover, the GI50 in the test with CAKI-1, in the test with HL-60, in the test with HCT-116, in the test with HOP-62, with SF-268 and in the test with SW-620 was > 100 µM (inactive) in each case. For the same compound, the GI50 in the test with ACHN is > 100 µM (inactive).

As for `OC12c3ccccc3C1(N1CCOCC1)CCCCC21OCCCO1` (configuration not stated), the GI50 in the test on SK-OV-3 is > 100 µM (inactive); in the test on M14, > 100 µM (inactive); in the test on RXF 393 it was > 100 µM (inactive); in the test on SNB-19, > 100 µM (inactive); in the test with HCT-15, more than 100 µM; with A549, > 100 µM (inactive). The GI50 in the test with NCI-H522, with CAKI-1, in the test with SN12C, with HL-60, with HCT-116 and with HOP-62 was > 100 µM (inactive) each time. Further, the GI50 with SF-268 and with ACHN was > 100 µM (inactive) throughout.

On to `O=C(O)c1ccc2c(c1)C(=O)N(c1ccc(S(=O)(=O)c3ccc(N4C(=O)c5ccc(C(=O)O)cc5C4=O)cc3)cc1)C2=O`, for which the GI50 in the test on SK-OV-3 was > 100 µM (inactive); in the test on M14 it was > 100 µM (inactive); in the test on RXF 393, > 100 µM (inactive); in the test with SNB-19, > 100 µM (inactive); with HCT-15, more than 100 µM; in the test with A549 it was > 100 µM (inactive). The GI50 in the test with NCI-H522, in the test on CAKI-1, in the test on SN12C, in the test with HL-60, with HCT-116 and in the test on HOP-62 was > 100 µM (inactive) each time. The GI50 with SF-268, with SW-620 and in the test with ACHN was > 100 µM (inactive) each time.

Source of the values: ChEMBL document CHEMBL1201862, “PubChem BioAssay data set” (2004).
